# What was measured:
# [1] = system: DSY-1764 C. albican mutant erg3/11 (AmB-resistant strain); assay: MIC determination in AmB-resistant Candida strain DSY-1764; format: cell-based, Candida albicans; conditions: Candida albicans, 36 h
# Protocol: (§1) In Vitro Antifungal Activity. MIC values for various strains were determined in accordance with the standard protocol from the National Committee of Clinical Laboratory Standards but using YEPD liquid medium instead of RPMI-1640 medium (National Committee of Clinical Laboratory Standards (Reference Method for Broth Dilution Antifungal Susceptibility Testing of Yeast, M27-A2, Approved Standard-Second Edition, Volume 22, Number 15, 1995). AmB was used as a reference. The strains were cultivated overnight in 5 mL YEPD liquid medium at 30 to 37° C. (30° C. for the strain BY4741; 37° C. for the strain DSY1764) with constant shaking. The saturated cultures were diluted to an ODB600 of 0.1 (3×10P^7 cells/mL). Using 24 wells plate, each well was prepared by adding 1% (12 μL) of DMSO solution of the tested polyene macrolide with 1% (12 μL) yeast cells solution and completed with YEPD (1.176 mL). The plates were sealed with Parafilm and then incubated for 18 to 36 hours at 30 to 37° C. (18 hours at 30° C. for the strain BY4741; 36 hours at 37° C. for the strain DSY1764). The optical density was read at 600 nm using 1.5 mL cuvettes. The MIC value was defined as the drug concentration needed to inhibit growth, less than 5% compared to a drug-free culture.
# (§2) MIC values of the polyene macrolides 3, 9 and 10 (Diamine-AmB and its ester and diamide derivative, respectively) in various Candida strains including an AmB-resistant strain C. albicans (DSY1764, with the genotype erg3AΔ::hisG/erg3BΔ::hisG erg11Δ::hisG/erg11Δ::hisG-URA3-hisG) were determined.
# [2] = system: CAF2-1 C. albican wt; assay: MIC determination in Candida strain CAF2-1; format: cell-based, Candida albicans; conditions: Candida albicans
# Protocol: as §1, §2
# [3] = system: Saccharomyces cerevisiae wild type BY4741; assay: MIC determination in Saccharomyces cerevisiae wild type BY4741; format: cell-based; conditions: Saccharomyces cerevisiae wild type BY4741; YEPD liquid medium, 18 hours at 30° C.; read-out: MIC
# Protocol: as §1
# MIC values of various polyene macrolides of the invention in Saccharomyces cerevisiae wild type BY4741, a derivative of S288C, (with AmB as a reference) were determined as described hereinabove.
# Based on the remarkable performance observed with the Diamine-AmB conjugate similar modifications of the aminosugar moiety were made on other polyene macrolides, such as for example Nystatin (1b) and Pimaricin (1c). The antifungal activity of these nystatin and pimaricin conjugates bearing two aminopropyl side chains was measured using Saccharomyces cerevisiae wild type BY4741.
# [4] = system: DSY-1751 C. albican mutant erg3; assay: MIC determination in Candida strain DSY-1751; format: cell-based, Candida albicans; conditions: Candida albicans
# Protocol: as §1, §2
# [5] = system: DSY-565 C. glabrata CI; assay: MIC determination in Candida strain DSY-565; format: cell-based; conditions: Nakaseomyces glabratus
# Protocol: as §1, §2
# [6] = system: DSY-296 C. albican CI; assay: MIC determination in Candida strain DSY-296; format: cell-based, Candida albicans; conditions: Candida albicans
# Protocol: as §1, §2
# [7] = system: DSY-562 C. glabrata CI; assay: MIC determination in Candida strain DSY-562; format: cell-based; conditions: Nakaseomyces glabratus
# Protocol: as §1, §2
# [8] = system: DSY-654 C. albican mutant cdr1/2; assay: MIC determination in Candida strain DSY-654; format: cell-based, Candida albicans; conditions: Candida albicans
# Protocol: as §1, §2
Compound,MIC [1],MIC [2],MIC [3],MIC [4],MIC [5],MIC [6],MIC [7],MIC [8]
"C[C@@H]1[C@H](O)[C@@H](C)/C=C/C=C/C=C/C=C/C=C/C=C/C=C/[C@H](O[C@@H]2O[C@H](C)[C@@H](O)[C@H](N(CCCN)CCCN)[C@@H]2O)CC2O[C@](O)(C[C@@H](O)C[C@@H](O)[C@H](O)CC[C@@H](O)C[C@@H](O)CC(=O)O[C@H]1C)C[C@H](O)[C@H]2C(=O)NCCCN(C)C [compound 11, 16-(N′-(3-Dimethylaminopropyl)carboxamide)-N,N-di-(3-aminopropyl)-AmB]",1 µM,0.5 µM,0.4 µM,1 µM,0.3 µM,0.3 µM,0.3 µM,–
"C[C@@H]1[C@H](O)[C@@H](C)/C=C/C=C/C=C/C=C/C=C/C=C/C=C/[C@H](O[C@@H]2O[C@H](C)[C@@H](O)[C@H](N(CCCN)CCCN)[C@@H]2O)CC2O[C@](O)(C[C@@H](O)C[C@@H](O)[C@H](O)CC[C@@H](O)C[C@@H](O)CC(=O)O[C@H]1C)C[C@H](O)[C@H]2C(=O)N1CCN(C)CC1 [compound 12, 16-(N′-(1-Methylpiperazinyl)carboxamide)-N,N-di-(3-aminopropyl)-AmB]",1 µM,0.3 µM,0.2 µM,0.4 µM,0.2 µM,–,0.3 µM,0.4 µM
